According to patent US20040221332A1, “Plant growth regulating genes, proteins and uses thereof” (priority 2001, published 2004):
Where two headings read alike, the source gives them in different places.

How the values were obtained:
[1] = system: OsGREP1 transcript levels; test: RNA gel blot of OsGREP1 mRNA in deepwater rice stem sections treated with gibberellin; set-up: species or system Oryza sativa; conditions: 50 μM GA3, stem sections, meristematic zone, within 30 minutes and again 15 h after onset
Description: Analysis of hormone and inhibitor effects was performed using excised stem segments containing the youngest growth-responsive internode (Raskin & Kende, 1984). Growth of the stem sections was induced by application of 50 μM GA3 for the times indicated. To inhibit protein synthesis, stem sections were incubated in aqueous solutions of cycloheximide for the times indicated. Plant tissue for RNA extraction was harvested on ice and immediately after harvest frozen in liquid nitrogen. Meristematic tissue was harvested from 0 to 5 mm above the second youngest node, i.e. the intercalary meristem (IM). […]
To determine gene expression under different conditions and in different rice tissues, mRNA abundance of OsGREP1 was analyzed by RNA gel blot hybridization. […]
mRNA abundance of OsGREP1 was also analyzed in different tissues of adult rice plants and seedlings and in suspension-cultured rice cells by RNA gel blot analysis (FIG. 7). […] OsGREP1 mRNA can also be detected in suspension-cultured cells but at lower levels than in all other tissues. […] Stem sections containing the IM and EZ of the internode were treated with 50 μM GA3 and analyzed for expression of OsGREP1 by RNA gel blot hybridization 0, […], 1, 3, 6 and 15 h after treatment (FIG. 8).

[2] = system: protein synthesis; conditions: alfalfa, 150 μM; cited from earlier work
[3] = system: OsGREP1 transcripts; test: RNA gel blot of OsGREP1 mRNA in deepwater rice internode sections treated with cycloheximide; set-up: species or system Oryza sativa
Description: Analysis of hormone and inhibitor effects was performed using excised stem segments containing the youngest growth-responsive internode (Raskin & Kende, 1984). Growth of the stem sections was induced by application of 50 μM GA3 for the times indicated. To inhibit protein synthesis, stem sections were incubated in aqueous solutions of cycloheximide for the times indicated. Plant tissue for RNA extraction was harvested on ice and immediately after harvest frozen in liquid nitrogen. Meristematic tissue was harvested from 0 to 5 mm above the second youngest node, i.e. the intercalary meristem (IM). Cells which are predominately involved in elongation were harvested from 5 to 15 mm above the second youngest node, i.e. the elongation zone (EZ) and differentiated tissue was harvested from the oldest part of the internode below the youngest node, i.e. the differentiation zone (DZ).
To determine gene expression under different conditions and in different rice tissues, mRNA abundance of OsGREP1 was analyzed by RNA gel blot hybridization. Total RNA was isolated using the TRIzol reagent (Gibco BRL) and precipitated with 4M LiCl as described (Puissant & Houdebine, 1990). […]
Gene expression of OsGREP1 was also determined by measuring mRNA abundance in IM sections of deepwater rice internodes treated with cycloheximide (CHX) at 0, 0.02, 2, and 20 μg/ml (FIG. 9). […]

[4] = system: protein synthesis; conditions: maize, 20 μM CHX; cited from earlier work
[5] = system: Arabidopsis thaliana; test: Phenotypic characterization of transgenic plants transformed with OsPSK (digital imaging of rosette and inflorescence); assay type: in vivo
Description: Of 11 different transgenic plant lines of Arabidopsis thaliana (named AE0017, AE0018, AE0019, AE0021, AE0022, AE0023, AE0024, AE0025, AE0026, AE0027 and Os-PSK) 500 mg of seeds is placed in 50 ml plastic tubes. 27 ml of a 0.2% agar solution is added and mixed to suspend the seeds. The said tubes are stored at 4° C. for 3 days to release dormancy. Subsequently, the suspension of seeds was evenly dispensed as drops of 50 μl on a 50 cm by 30 cm tray containing a mixture of sand and soil in a ratio of 1 to 2.
The trays were placed in the greenhouse under the following conditions: 22° C. at day time, 18° C. at night, 60% RH, 20 hours of photoperiod, subirrigation once a day with water during 15 min. The 4th day and the 10th day after sowing, the seedlings were sprayed with an herbicide solution. The 14th day after sowing, 30 resistant seedlings of each transgenic line were transplanted in individual pots with a diameter of 10 cm containing a mixture of sand and peat in a ratio of 1 to 3.
Said pots are then placed in the greenhouse under the same conditions as described for the trays. The pots are subirrigated during 15 min. once a week, or more if needed. The 14th, 18th, 21st, 28th, 32nd and 39th day after sowing, the rosettes of each plant were photographed using a digital camera and the pictures were stored for further analysis.
The 32nd, 38th, 41 st, 46th, 49th, and 53rd day after sowing, the inflorescence of each plant was photographed equally using a digital camera and the pictures were stored for further analysis. The number of pixels corresponding to plant tissues was recorded on each picture, converted to square cm and used as a measurement of plant size.

## C=C1C[C@]23C[C@@]1(O)CC[C@H]2[C@@]12C=C[C@H](O)[C@@](C)(C(=O)O1)[C@H]2[C@@H]3C(=O)O [GA3, gibberellic acid]
[1]
  OsGREP1 transcript levels: slight and transient increase
[1]; listed as GA
  OsGREP1 transcript levels: induced

## C[C@@H]1C[C@@H]([C@H](O)CC2CC(=O)NC(=O)C2)C(=O)[C@@H](C)C1 [cycloheximide]
[2]
  inhibition of protein synthesis: 90%
[3]; IM sections of deepwater rice internodes, 20 μg/ml (corresponds to 70 μM) CHX
  OsGREP1 transcripts: induced
[3]; stem sections of deepwater rice, 0 to 20 μg/ml tested
  cycloheximide concentration at which OsGREP1 transcripts accumulate: ≥ 0.2 µg/mL
[4]
  inhibition of protein synthesis: 23%

B1: OsPSK: rice growth regulating polypeptide, prepro-phytosulfokine (SEQ ID NO 104/105), overexpressed in transgenic Arabidopsis under sunflower ubiquitin promoter (protein, listed as Oryza sativa)
chain: MVNPGRTARALCLLCLALLLLGQDTHSRKLLLQEKHSHGVGNGTTTTQEPSRENGGSTGSNNNGQLQFDSAKWEEFHTDYIYTQDVKNP
[5]; OsPSK plants vs other transgenic plant lines in the same experiment
  ratio between size of inflorescence before harvest and maximal measured size of the rosette: significantly higher
[5]; OsPSK transgenic line vs other transgenic lines
  rosette size: slightly bigger
[5]; OsPSK transgenic line vs the other transgenic plant lines in the experiment
  plant size: on average the biggest plants
